Laboratory results published in ChEMBL document CHEMBL1149009, “Antitumor agents, 79. Cytotoxic antileukemic alkaloids from Brucea antidysenterica” (1986).
Converted amounts (≈) assume the structure as drawn. The source made the active and inactive calls. The rule behind the calls is not given here.

What was measured:
Assay type in all cases: functional
[1] = test system: P388; experiment: In vivo antitumor activity against mouse P388 cells at 200 mg/kg after 1 day
[2] = test system: KB; experiment: Cytotoxicity against human KB cells; conditions: for EC50: read-out: ED50 (the source's name)
[3] = test system: P388; experiment: In vivo antitumor activity against mouse P388 cells at 25 mg/kg after 3 days

O=c1[nH]cc(F)c(=O)[nH]1 [FLUOROURACIL]
T/C [1]: 135%

COc1cccc2c1c1c(OC)cnc3ccc(=O)n2c31
EC50 [2]: 1 mg/L (≈ 3.57 µM)
T/C [3]: 122%

O=c1ccc2nccc3c4ccccc4n1c23
Activity [2]: inactive

O=c1ccc2nccc3c4c(O)cccc4n1c23
EC50 [2]: ≤ 4 mg/L
